Assay results from US20120029083A1, “POLYMORPHIC FORMS OF ALISKIREN HEMIFUMARATE AND PROCESS FOR PREPARATION THEREOF” (Teva Pharmaceutical Industries, Ltd., priority 2007, published 2012).
Read-outs that look alike come from different tables or passages of the source.

Settings: pressed at 2 tons for 1 minute
Experimental: ARL X-ray powder diffractometer model X′TRA-030, Peltier detector, round standard aluminum sample holder with round zero background quartz plate (or silicon plate in the case of Form XIV) was used. The cathode is CuKα radiation, λ=1.5418 Å. Scanning parameters: Range: 2-40°2θ, continuous Scan, Rate: 3 deg/min. The accuracy of peak positions is defined as +/−0.2° due to experimental differences like instrumentations, and sample preparations.
The formulation was mixed and pressed to a tablet. The applied pressure was 2 tons for 1 minute.
The formulation is mixed and pressed to a tablet. The applied pressure is 2 tons for 1 minute.

For `COCCCOc1cc(C[C@@H](C[C@H](N)[C@@H](O)C[C@H](C(=O)NCC(C)(C)C(N)=O)C(C)C)C(C)C)ccc1OC.COCCCOc1cc(C[C@@H](C[C@H](N)[C@@H](O)C[C@H](C(=O)NCC(C)(C)C(N)=O)C(C)C)C(C)C)ccc1OC.O=C(O)/C=C/C(=O)O` [amorphous aliskiren hemifumarate, (2S,4S,5S,7S)-N-(2-Carbamoyl-2-methylpropyl)-5-amino-4-hydroxy-2,7-diisopropyl-8-[4-methoxy-3-(3-methoxypropoxy)phenyl]-octanamide hemifumarate], which “conversion of amorphous form to a crystalline phase in pressed tablet (XRPD)” value (formulation Example 67 (microcrystalline cellulose, PVP, crosspovidone, aerosil 200, Mg stearate)) is on record?
Its value is “No conversion of the amorphous Aliskiren to a crystalline phase”.

What about the “conversion of amorphous form to a crystalline phase in pressed tablet (XRPD)” value (formulation Example 68 (lactose monohydrate, PVP, crosspovidone, Mg stearate), written in present tense) of the same compound?
The value was “No conversion of the amorphous Aliskiren to a crystalline phase”.
